Assay results from patent US9302967B2, “Substituted cathechols as inhibitors of IL-4 and IL-5 for the treatment of bronchial asthma” (Council of Scientific & Industrial Research, priority 2011, dated 2016).
Like-named read-outs stand apart in the source and are kept apart here.

What was measured:
[1] = mouse, in vivo
Method: (§1) Earlier, LD50 of ICB 14 C6 was derived from in vitro cytotoxicity assay by NRUmethod in 3T3 cells. […] For 90d sub-chronic toxicity study the highest dose selected was one-fourth of the limit dose. Four different doses of ICB14 C6 (47, 23, 12 and 0 [vehicle] mg/kg body weight) were prepared in ground nut oil daily for 5 days a week for 90d.
Blood samples were taken from the retro-orbital sinus on day 91 for hematological and clinical chemistry analyses. Clinical analysis included serum creatinine, serum gammaGT, serum uric acid, serum glucose, serum protein, serum bilirubin, serum GOT/AST and serum GPT/ALT. Hematology including white blood cell count was analyzed with the help of Automatic Hematology Analyzer (Medonic).
Before sacrifice, blood was drawn from the retro-orbital sinus of mice with the help of heparinised capillary tubes and hematological parameters were assessed with the help of Automatic Hematology Analyzer (Medonic CA535).

COX-2 = target: T1, COX-2 (Homo sapiens, UniProt P35354); conditions: cited from earlier work
T1 sequence (P35354 18-604): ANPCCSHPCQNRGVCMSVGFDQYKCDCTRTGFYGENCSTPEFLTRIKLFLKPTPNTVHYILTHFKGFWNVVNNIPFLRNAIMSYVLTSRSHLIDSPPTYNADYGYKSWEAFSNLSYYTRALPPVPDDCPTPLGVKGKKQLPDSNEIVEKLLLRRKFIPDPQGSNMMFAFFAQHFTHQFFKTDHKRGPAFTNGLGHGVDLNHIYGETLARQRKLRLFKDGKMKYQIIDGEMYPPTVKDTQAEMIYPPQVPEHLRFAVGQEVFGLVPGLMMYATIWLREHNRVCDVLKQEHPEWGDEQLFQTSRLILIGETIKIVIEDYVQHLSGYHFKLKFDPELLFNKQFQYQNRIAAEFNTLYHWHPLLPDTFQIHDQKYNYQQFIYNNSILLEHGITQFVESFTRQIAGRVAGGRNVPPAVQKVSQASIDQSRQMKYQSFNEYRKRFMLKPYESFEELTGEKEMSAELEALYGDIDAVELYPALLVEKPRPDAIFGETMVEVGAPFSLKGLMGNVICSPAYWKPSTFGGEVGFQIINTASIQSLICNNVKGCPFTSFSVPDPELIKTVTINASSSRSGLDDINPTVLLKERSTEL

NF-κB pathway = conditions: lipopolysaccharide (LPS)-induced macrophages; cited from earlier work
IL-4 = assay: PHA-stimulated human PBMC, IL-4 in supernatant by Cytometric Bead Array; type: cell-based; conditions: PHA 10 μg/ml, read-out: IC50 inhibitory activity, stimulation-induced IL-4
Method: Normal human peripheral blood mononuclear cells (PBMC) were stimulated with phytohemagglutinin (PHA) 10 μg/ml in the presence and absence of varying concentrations of compounds of formula I and II. Culture supernatants were harvested and IIL-4 and IL-5 cytokines were quantitated by Cytometric Bead Array (CBA™) kit (Becton Dickinson, USA) following manufacturers instructions using a Flow Cytometer (BD LSR, Becton Dickinson) and CBA™ analysis software (Becton Dickinson).

[2] = mouse, in vivo; remark: listed apart in the source
Method: as §1
After 90d of oral treatment with ICB3001, 3 mice in each group were sacrificed and major organs were placed in 10% formalin to prepare histological slides. The slides were stained by haematoxylin-eosin dye.

[3] = 14 d acute oral toxicity: observations, body weight, organ weight, necropsy; type: in vivo, mice
Method: 14 d acute oral toxicity of compound 1 of formula I was performed. Three doses were selected: 47, 23, 12 and 0 mg/kg bw (Vehicle control) of compound 1 of formula I was administered by single oral gavage using blunt ended steel canula.

[4] = 90 d sub-chronic oral toxicity: immunotoxicity; type: in vivo
Method: Immunotoxicity in mice was performed in accordance to EPA guideline (1998). […] Humoral immunity was measured in terms of HA titer and plaque forming cell assay. […] Cell mediated immunity was measured in terms of % increase in paw volume in mice sensitized with SRBC.
as §1

Structure (SMILES): C=CCc1ccc(O)c(O)c1 [Compound 1, 4-allyl-benzene-1,2-diol]
- Hemoglobin, RBC and WBC counts vs normal range [1]: within the normal range
- platelet counts vs normal range [1]: below the normal range
- HGB ([1]; 12 mg/kg): 13.76 ± 0.55 g/dL
- PLT ([1]; 12 mg/kg): 272 ± 93 ×10^3/mm^3
- RBC ([1]; 12 mg/kg): 10.07 ± 0.67 ×10^6/mm^3
- WBC ([1]; 12 mg/kg): 8.66 ± 1.27 ×10^3/mm^3
- HGB ([1]; 23 mg/kg): 13.85 ± 0.35 g/dL
- PLT ([1]; 23 mg/kg): 306 ± 106 ×10^3/mm^3
- RBC ([1]; 23 mg/kg): 9.82 ± 0.014 ×10^6/mm^3
- WBC ([1]; 23 mg/kg): 10.85 ± 2.11 ×10^3/mm^3
- HGB ([1]; 47 mg/kg): 12.13 ± 0.57 g/dL
- PLT ([1]; 47 mg/kg): 319 ± 120 ×10^3/mm^3
- RBC ([1]; 47 mg/kg): 8.51 ± 0.323 ×10^6/mm^3
- WBC ([1]; 47 mg/kg): 10.16 ± 1.03 ×10^3/mm^3
- COX-2 inhibition (COX-2): potent COX-1/COX-2 inhibitor
- NF-κB pathway (NF-κB pathway): inhibited NF-κB pathway
- IC50 (IL-4): 5 µM
- heart histology [2]: no significant changes in the histo-architecture
- kidney histology [2]: no significant changes were observed
- liver histology [2]: no change in the structure of hepatic cells
- lung histology ([2]; 47 mg/kg): slight thickening of intercellular septum and migration of polymorphonuclear lymphocytes
- acute oral (level) established from body weight, organ weight, necropsy, immunotoxicity, hematology, clinical chemistry, cage side observation ([3]; mice): 23 mg/kg
- necropsy findings in vital organs ([3]; mouse, in vivo): no gross or microscopic lesion
- clinical signs on day of administration ([3]; mouse, in vivo, po): transient symptoms of restlessness and rapid rate of respiration that persisted for 30 minutes post administration
- feed and water consumption ([3]; mouse, in vivo, po): comparable to vehicle control group
- morbidity and/or mortality ([3]; single oral 47, 23 and 12 mg/kg bw): did not result in any morbidity and/or mortality
- Bone marrow cell viability % ([4]; 90 d, 12 mg/kg bw): 97.26 ± 0.88%
- Lymph node lymphocyte viability % (pooled) ([4]; 90 d, 12 mg/kg bw): 97.40 ± 0.61%
- Splenocyte viability % ([4]; 90 d, 12 mg/kg bw): 96.79 ± 0.36%
- Bone marrow cell viability % ([4]; 90 d, 23 mg/kg bw): 96.80 ± 1.15%
- Lymph node lymphocyte viability % (pooled) ([4]; 90 d, 23 mg/kg bw): 98.28 ± 0.80%
- Splenocyte viability % ([4]; 90 d, 23 mg/kg bw): 96.56 ± 0.80%
- Bone marrow cell viability % ([4]; 90 d, 47 mg/kg bw): 95.45 ± 0.31%
- Lymph node lymphocyte viability % (pooled) ([4]; 90 d, 47 mg/kg bw): 98.17 ± 0.05%
- Splenocyte viability % ([4]; 90 d, 47 mg/kg bw): 96.45 ± 0.62%
- Lymph node lymphocyte, splenocytes and bone marrow cell viabilities ([4]; 90 d, all the groups): > 94%
- B cell function (PFC) ([4]; mouse, in vivo): Dose dependant decrease in B cell function
- Total IgA ([4]; mouse, in vivo, 12 mg/kg): 264.25 ± 28.6 ng/mL
- Total IgE ([4]; mouse, in vivo, 12 mg/kg): 0.69 ± 0.115
- Total IgG ([4]; mouse, in vivo, 12 mg/kg): 12.98 ± 0.53 mg/mL
- Total IgM ([4]; mouse, in vivo, 12 mg/kg): 6.65 ± 0.13
- DTH response (% increase in paw volume) ([4]; mouse, in vivo, 12 mg/kg, 90 d): 12.12 ± 2.96%
- HA tire (reciprocal of the last dilution showing positive reaction) ([4]; mouse, in vivo, 12 mg/kg, 90 d): 1280
- PFC ([4]; mouse, in vivo, 12 mg/kg, 90 d): 5533 ± 437 per 10^6lymphocytes
- Total IgA ([4]; mouse, in vivo, 23 mg/kg): 207.25 ± 9.7 ng/mL
- Total IgE ([4]; mouse, in vivo, 23 mg/kg): 0.74 ± 0.23
- Total IgG ([4]; mouse, in vivo, 23 mg/kg): 15.21 ± 0.31 mg/mL
- Total IgM ([4]; mouse, in vivo, 23 mg/kg): 0.57 ± 0.17
- DTH response (% increase in paw volume) ([4]; mouse, in vivo, 23 mg/kg, 90 d): 11.55 ± 3.77%
- HA tire (reciprocal of the last dilution showing positive reaction) ([4]; mouse, in vivo, 23 mg/kg, 90 d): 640
- PFC ([4]; mouse, in vivo, 23 mg/kg, 90 d): 4911 ± 873 per 10^6lymphocytes
- Total IgA ([4]; mouse, in vivo, 47 mg/kg): 167 ± 2.12 ng/mL
- Total IgE ([4]; mouse, in vivo, 47 mg/kg): 0.65 ± 0.09
- Total IgG ([4]; mouse, in vivo, 47 mg/kg): 6.11 ± 0.25 mg/mL
- Total IgM ([4]; mouse, in vivo, 47 mg/kg): 1.02 ± 0.30
- DTH response (% increase in paw volume) ([4]; mouse, in vivo, 47 mg/kg, 90 d): 11.28 ± 3.69%
- HA tire (reciprocal of the last dilution showing positive reaction) ([4]; mouse, in vivo, 47 mg/kg, 90 d): 320
- PFC ([4]; mouse, in vivo, 47 mg/kg, 90 d): 1849 ± 780 per 10^6lymphocytes
